In patent US20170335336A1, “USE OF A SELECTABLE MARKER GENE IN SUGAR BEET PROTOPLASTS TRANSFORMATION METHOD AND SYSTEM” (SESVanderHave N.V., priority 2014, published 2017):

Assays:
[1] = tested on: wild type sugar beet protoplasts; assay: killing curve for optimal herbicide concentration; assay type: cell-based, sugar beet (Beta vulgaris L.); settings: killing curve (Table 1 and Table 2)
Description: The optimal herbicide (ALS inhibitor) concentration used in the method according to the invention was determined from a killing curve concentration for two preferred ALS inhibitors (Foramsulfuron and Ethoxysulfuron) and was established as follows: • To use optimal concentration of herbicide for selection of transformed sugar beet protoplasts, killing curve was developed on wild type sugar beet protoplasts with the following concentrations (Table 1 and Table 2). Based on the results obtained from the killing curve experiments concentration of 5×10^−9M for foramsulfuron and 5×10^−11M for ethoxysulfuron were selected for using with transformed sugar beet protoplasts with pS189 plasmid DNA carrying the mutated BvALS nucleotide sequence.

[2] = tested on: non-transformed protoplasts; assay: control experiment: non-transformed protoplasts on selection media; assay type: cell-based, sugar beet (Beta vulgaris L.)
Description: Transformation experiments were performed using plasmid DNA (pS189) according to the standard PEG transformation system under two selection media containing 5×10^−9M foramsulfuron (ALF) and 5×10^−11M ethoxysulfuron (ALE) concentrations. The selection of only the transformed protoplasts were evidenced by the number of calli recovered from each transformation experiment. […] So far seven transformation experiments were performed for ALF and six experiments for ALE. From ALF experiments, about 1799 buds and 89 regenerated plantlets were obtained (Table 3).

| SMILES | concentration selected from killing curve experiments for selection of transformed protoplasts [1] [nM] | calli / survival of cells on selection medium ([2]; selection medium containing 5×10^−11M ethoxysulfuron (ALE)) | calli / survival of cells on selection medium ([2]; selection medium containing 5×10^−9M foramsulfuron (ALF)) |
| --- | --- | --- | --- |
| CCOc1ccccc1OS(=O)(=O)NC(=O)Nc1nc(OC)cc(OC)n1 [ethoxysulfuron] | 0.05 | did not result in any calli or survival of cells |  |
| COc1cc(OC)nc(NC(=O)NS(=O)(=O)c2cc(NC=O)ccc2C(=O)N(C)C)n1 [foramsulfuron] | 5 |  | did not result in any calli or survival of cells |
